For orientation: melting point means the temperature, or range, at which the solid turns liquid.

From a melting point compilation (Tetko et al.; mined from patent text by program, amines drawn as free bases though some values may be those of a salt) come the findings set out here.

Some results are limits rather than exact numbers.

`COc1cc(Cl)cc(COc2cccc(OCc3ccc4ccccc4n3)c2)c1OCC(=O)O`: the melting point is 185 to 190 °C.

Turning to `CC1=C(C(=O)CS(=O)(=O)NC(C)C)[C@@H](c2cccc([N+](=O)[O-])c2)C(C(=O)O[C@@H](C)c2ccccc2)=C(C)N1`, the melting point was 128 to 131 °C.

Compound `O=[N+]([O-])c1cccnc1NCC(O)CO` (stereo not drawn) registered a melting point of 95.5 to 98 °C.

On to `Cc1ccc2c3c(ccc2n1)OC[C@H](CNC[C@@H]1CCc2[nH]c4ccc(F)cc4c2C1)O3`, for which the melting point is 89 to 93 °C.

`CCCCc1sc2ccccc2c1C(=O)c1ccc(NS(=O)(=O)c2ccc(C)cc2)cc1` yielded a melting point of 128 °C.

Compound `CC(C)OC(=O)C(C(=O)Nc1ccccc1)=C1SCS1` registered a melting point of 115 to 116 °C.

The compound `CO/C=C(/C(=O)OC)c1ccccc1Br` showed a melting point of 68 to 69 °C.

Compound `O=Cc1c(Cl)cncc1Cl` had a melting point of 110 to 111 °C.

For the compound `CCOC(=O)/C=C/c1cc(OCOC)nn1Cc1ccc(Cl)cc1Cl`, the melting point fell in the range of 98 to 99 °C.

`CN1CCN(c2nn(C(=O)c3ccccc3)c3ccccc23)CC1`: the melting point lay within 104 to 106 °C.

On to `CCOC(=O)Nc1cc(=O)c2cc(Oc3ccccc3)c(NS(C)(=O)=O)cc2o1`, for which the melting point is 207 to 209 °C.

Regarding `O=C1C=C(NC(=O)C(=O)c2cn(Cc3ccc([N+](=O)[O-])cc3)c3ccccc23)CO1`, the melting point lay within 275 to 277 °C.

For `CC(=O)Nc1nc(NC(C)=O)nc(NC2CC2)n1`, the melting point was in the range of 267 to 269 °C.

The compound `CCCCc1cn(CCCC)c(=O)n1Cc1ccc(-c2cnccc2-c2nnn[nH]2)cc1` showed a melting point of 128 to 130 °C.

Regarding `O=C1NCCc2c1c1ccccc1n2Cc1ccccc1`, the melting point fell in the range of 209 to 212 °C.

`CC(C)C(=O)Oc1cccc2c1C(=O)c1c(O)cccc1C2C(=O)C1CCCCC1` (stereo not drawn) came in with a melting point of 146 °C.

As to `O=C1c2ccccc2C2(CCCC2)C(=O)N1CCO`, the melting point was in the range of 76 to 77 °C.

`O=C1CC(=O)CC2(CCOCC2)C1` displayed a melting point of 162 to 164 °C.

The compound `FC(F)(F)c1ccc(-c2nc(-c3ccccn3)cs2)cc1` displayed a melting point of 123 to 127 °C.

`CCCCc1nc(O)cc(COC)n1` displayed a melting point of 96 to 98 °C.

`O=CNc1nc(C(=NOC2CCCCC2)C(=O)O)cs1` came in with a melting point above 230 °C.

`CCCCc1nc2c(n1Cc1ccc(-c3ccccc3S(N)(=O)=O)cc1)C(=NO)CCS2`: the melting point is above 200 °C.

Regarding `CC(C)(C)C1=NN(c2ccc(C(=O)O)cc2)C(c2cccc(Br)c2)C1` (stereo not drawn), the melting point is 216 °C.

Regarding `CNC(=O)c1cc2ccccc2c(-c2ccccc2I)n1`, the melting point lay in the range of 167 to 168 °C.

Consider `CCOc1cc(CN2CCN(c3ccc(C(=O)NC)cc3C)CC2)cc2c1OC(C)C(=O)N2` (stereo not drawn), for which the melting point was 173 to 180 °C.

In the case of `CN(Cc1cccc2c1CN(C1CCC(=O)NC1=O)C2=O)C(=O)Nc1ccc(Cl)c(Cl)c1` (stereo not drawn), the melting point was 275 to 277 °C.

As to `Cc1nc2c(s1)C(=O)C(C=O)CC2` (stereo not drawn), the melting point lay within 107 to 108 °C.

In turn, `CCOC(=O)c1cc2c(cn1)[nH]c1ccc(N(C)C)cc12` had a melting point of 220 to 221 °C.

`O=C(NCCC1OCCO1)c1cc(Br)c(Br)[nH]1`: the melting point lay in the range of 155 to 157 °C.

Compound `CC1SC(=O)NN=C1c1cccc(N)c1` (stereo not drawn) displayed a melting point of 167 to 170 °C.

`CC1(O)CSC(=S)N1c1ccccn1` (stereo not drawn) had a melting point of 120 °C.

In turn, `Fc1cc(Br)ccc1OCc1ccccc1` registered a melting point of 64.4 to 66.3 °C.

In turn, `O=C(O)C1(O)CCCN(Cc2ccccc2)C1` (stereo not drawn) yielded a melting point of 104 °C.

`CN(C(=O)CCS(C)=O)c1nnc(-c2cccnc2)s1` (stereo not drawn) showed a melting point of 138 to 140 °C.

`Cc1cccc(C)c1Nc1c(-c2c(Cl)cccc2OCC(N)=O)nc2ccc(F)cn12` showed a melting point of 186 to 187 °C.

On to `C=CCC1Oc2ccccc2-c2c(OC)cc3c(c21)C(C)=CC(C)(C)N3` (stereo not drawn), for which the melting point fell in the range of 84 to 86 °C.

On to `CCCCCCCCCCC(O)CNCCCCCCNCC(O)CCCCCCCCCC` (stereo not drawn), for which the melting point was 124 to 128 °C.

For the compound `CC(C)(C)C(=O)OCn1nnc(-c2cc(Br)ccc2NC(=O)c2cccc(S(=O)(=O)N3CCOCC3)c2)n1`, the melting point lay in the range of 210 to 212 °C.

Compound `CC(Oc1ccc(Oc2ncc(C(F)(F)F)cc2F)cc1)C(=O)Nc1ccc(C(F)(F)F)cc1` (stereo not drawn) showed a melting point of 127 to 128 °C.

The compound `c1cc(N=Nc2ccncc2)ccn1` yielded a melting point of 87 to 89 °C.

On to `CN(C)S(=O)(=O)Nc1ccc2[nH]cc(CC#N)c2c1`, for which the melting point lay within 147 to 150 °C.

For `Nc1ccc(N2C(=O)CCCC2c2ccc(Cl)c(Cl)c2)cc1` (stereo not drawn), the melting point fell in the range of 177 to 178 °C.

In the case of `CC(C)(C)OC(=O)N1CCN(c2cccc3c2ccn3S(=O)(=O)c2ccccc2)CC1`, the melting point fell in the range of 143 to 144 °C.

In turn, `CCOc1cc2c(Nc3cc(OC)c(Cl)cc3Cl)c(C#N)cnc2cc1OCC1CCN(C)CC1` showed a melting point of 182 to 186 °C.

For the compound `Clc1ccc2c(c1)C(c1ccccc1)=NCc1nnc(Br)n1-2`, the melting point amounted to 206 °C.

`COc1ccc([C@@H]2CCc3cc(OC)ccc3[C@@H]2Cn2ccnc2)cc1` (relative stereo): the melting point was determined as 114 °C.

In turn, `CCOC(=O)C(C)n1cc(-c2ccc(Oc3ccccc3)cc2)c2c(N)ncnc21` (stereo not drawn) had a melting point of 139 to 140 °C.

The compound `CN(C)C1=Nc2ccccc2C(O)(c2ccccc2)C1(C)C` (stereo not drawn) displayed a melting point of 170 to 173 °C.

For `CCCCc1ccc(-c2cnc(-c3ccc(C#N)cc3)nc2)cc1`, the melting point turned out to be 94.7 °C.

With `Cc1cc(C2CC(C)(C)NC(C)(C)C2)cc(C)c1O`, the melting point lay in the range of 152 to 154 °C.

Consider `CCN(CC)c1ccc(C2(c3ccc(N(C)C)cc3)OC(=O)c3c(Cl)c(Cl)c(Cl)c(Cl)c32)c(N(CC)CC)c1` (stereo not drawn), for which the melting point was in the range of 174 to 176 °C.

Regarding `CC(C)(C#N)c1c(Cl)cc(N)cc1Cl`, the melting point was determined as 208 °C.

Compound `COc1cc(-n2cc(C(=O)O)c(=O)c3cc(F)c(F)c(C)c32)ccc1F` showed a melting point above 280 °C.

`Nc1c(-c2ccccc2)cc(-c2ccccc2)c2cccnc12` returned a melting point of 100 to 102 °C.

Take `CC(C)(C)NC(=O)C(Br)CCl` (stereo not drawn): the melting point was 163 to 168 °C.

As for `CC(C(=O)O)c1ccc2[nH]ncc2c1` (stereo not drawn), the melting point is 91 to 96 °C.

For the compound `COc1ccccc1NS(=O)(=O)c1ccc(C)cc1`, the melting point is 126 to 128 °C.

On to `CC(=O)CC(=O)Nc1nnc(C(C)(C)C)s1`, for which the melting point lay within 166 to 168 °C.

With `Cc1c(Cc2cccc(C(F)(F)F)c2)sc2c(-c3cc(C(=O)NCCO)ccn3)cccc12`, the melting point was in the range of 201 to 202 °C.

Regarding `CCOC(=O)c1cn(-c2ccc([N+](=O)[O-])cn2)nc1SCc1ccccc1`, the melting point was in the range of 164 to 166 °C.

Turning to `CC(Cn1ncnn1)n1nnc2cc3c(=O)n(CC#N)nnc3cc2c1=O` (stereo not drawn), the melting point was in the range of 209 to 212 °C.

`COc1cc(NC(=O)Nc2c(-c3ccccc3C)c3cc(C)c(C)cc3oc2=O)cc(OC)c1OC(C)=O` displayed a melting point of 238 to 240 °C.

`CCCCOCCOc1ccc(-c2ccc3c(c2)C=C(C(=O)Nc2ccc(S(=O)Cc4nccn4CCCC(=O)NC)cc2)CCN3CC(C)C)cc1` (stereo not drawn) displayed a melting point of 159 to 161 °C.

Turning to `C=CCOc1ccc2c(=O)c3ccccc3oc2c1C(=O)C=Cc1ccccc1`, the melting point was 150 to 152 °C.

Take `CCCCCN(CCC12CC3CC(CC(C3)C1)C2)C(=O)NCc1cccnc1`: the melting point lay in the range of 88.5 to 102 °C.

Turning to `COc1cc2c(cc1OC)N(C(=O)c1ccc(-c3ccccc3C(F)(F)F)c(C)c1)Cc1ccc(C(=O)N(C)CC(O)CO)n1C2` (stereo not drawn), the melting point lay within 184 to 186 °C.

Turning to `Cc1ccc(OCCCCCOc2ccc3ccc(=O)oc3c2)cn1`, the melting point was in the range of 101 to 102 °C.

Compound `CC1C(=O)N(c2ccccc2)N=C1N` (stereo not drawn) gave a melting point of 147 °C.

Compound `CCCCCCCN(CCCCCSc1nc(-c2ccccc2)c(-c2ccccc2)[nH]1)c1nc2ccccc2o1` came in with a melting point of 58 to 60 °C.

In the case of `OCCOCCn1c(NC2CCNCC2)nc2ccccc21`, the melting point came out at 164 °C.

Compound `COc1ccc(S(=O)(=O)N(CCC(F)(F)C(F)F)c2ccccc2/C=C/c2ccncc2)cc1` displayed a melting point of 124 to 126 °C.

`CCc1nc2c(C)cc(C)nc2n1Cc1ccc(C(c2ccccc2)C(CC)C(=O)O)cc1` (stereo not drawn) displayed a melting point of 227 to 229 °C.

Turning to `COc1ccc(-n2nc(-c3c(-c4ccccc4)nn4ccccc34)ccc2=O)cc1`, the melting point is 158 °C.

In turn, `O=C(O)c1cc(F)c(N(CCO)CCO)c(F)c1` came in with a melting point of 146 to 150 °C.

For `CCOC(=O)c1cnc2c(cnn2-c2ccccc2)c1O`, the melting point was in the range of 149 to 150 °C.

Consider `CC(C)(C)c1cc(C(=O)c2ccccc2)cc(CN2CCC(O)CC2)c1O`, for which the melting point is 156 to 157 °C.

The compound `CN1Sc2cc3c(cc2CC1=O)CCCC3` came in with a melting point of 202 to 203 °C.

For the compound `CC(C)[C@H](NC(=O)N(C)Cc1cscn1)C(=O)N[C@@H](Cc1ccccc1)[C@@H](O)C[C@H](Cc1ccccc1)NC(=O)OCc1cccnc1`, the melting point was in the range of 71 to 74 °C.

Consider `O=C(O)c1ccc(OCc2cccc(Cl)c2)cn1`, for which the melting point was in the range of 176 to 177 °C.

The compound `CC(O)(c1cccc(C(F)(F)F)c1)c1cc(Cl)ccc1O` (stereo not drawn) gave a melting point of 115 °C.

In turn, `O=C(O)c1ccc2ccc(C(F)(F)F)nc2c1O` gave a melting point of 209 to 211 °C.

The compound `COc1ccccc1N1CC(=O)Nc2c(C(N)=O)nc(-c3cccc(O)c3)nc21` registered a melting point of 336 to 338 °C.

With `COC(=O)CCn1cc(Cc2cccnc2)c2c(CCC(=O)OC(C)(C)C)cccc21`, the melting point lay within 80 to 82 °C.

`COc1cc(OC)nc(C2(C#N)OC(=O)c3c(Cl)cccc32)n1` (stereo not drawn) gave a melting point of 159 to 161 °C.

With `CCOC[C@]1(OC)CC[C@H]2[C@@H]3CCC4=CC(=O)CCC4=C3[C@@H](c3ccc(C(C)=O)cc3)C[C@@]21C`, the melting point fell in the range of 134 to 137 °C.

The compound `Cn1cc(O)c(=O)c2ccc(C#N)cc21` gave a melting point of 305 °C.

`Cc1ccc(N2C(=O)C(O)=C(C(=O)c3ccc(OC(F)(F)F)cc3)C2c2ccc(Cn3ccnn3)cc2)nn1` (stereo not drawn) returned a melting point of 275 °C.

As to `CCC1C(C=O)=NN=C(c2ccc(OC)c(OC)c2)c2cc(OC)c(OC)cc21` (stereo not drawn), the melting point lay within 103 to 105 °C.
